Experimental data taken from BigSolDB 2.1.

CCOC(=O)c1ccc(N)cc1
solubility (mole fraction)
Settings | in cyclohexane | in isopropyl myristate | in n-octanol | in water
298.15 K | 0.00107 | 0.0637 | 0.0628 | 0.000105
303.15 K | 0.00134 | 0.0764 | 0.0753 | 0.000126
308.15 K | 0.00185 | 0.102 | 0.0916 | 0.000159
313.15 K | 0.00225 | 0.121 | 0.113 | 0.000186
